US20250195521A1 (Revolution Medicines, Inc., priority 2020, published 2025)
Where two headings read alike, the source gives them in different places.

Tests used:
KRAS WT = KRAS WT (Homo sapiens (Human), UniProt P01116+P62937); assay: Ras-Raf disruption/FRET/MOA assay (BRAF RBD, Cyclophilin A); assay type: biochemical; conditions: read-out: KRAS WT FRET data IC50
Procedure, shortened: (§1)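 25 μM tagless Cyclophilin A, 12.5 nM His6-Ras-GMPPNP and 50 nM GST-BRAF RBD in HEPES pH 7.3 buffer with 5 mM MgCl2, with compound (10-point 3-fold series from 30 μM final) for 3 h at 25 °C. Anti-His Eu and anti-GST APC then added for 1.5 h. IC50 from TR-FRET ratio decrease versus DMSO.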

KRAS G12V = KRAS G12V (Homo sapiens (Human), UniProt P01116+P62937, G12V); assay: as above; assay type: biochemical; conditions: read-out: KRAS G12V FRET IC50
Procedure, shortened: as §1

NRAS G12C = NRAS G12C (Homo sapiens (Human), UniProt P01111+P62937, G12C); assay: as above; assay type: biochemical
Procedure, shortened: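 Measured: compound-facilitated Cyclophilin A:Ras complex blocking RAF RBD binding. Conditions: 12.5 nM Ras-GMPPNP, 50 nM BRAF RBD, 25 μM CypA, 3 h plus 1.5 h detection. Output: IC50 from TR-FRET ratio.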

KRAS G12S = KRAS G12S (Homo sapiens (Human), UniProt P01116+P62937, G12S); assay: as above; assay type: biochemical; conditions: read-out: KRAS G12S FRET IC50
Procedure, shortened: as §1

KRAS G13C = KRAS G13C (Homo sapiens (Human), UniProt P01116+P62937, G13C); assay: as above; assay type: biochemical; conditions: read-out: KRAS G13C FRET IC50
Procedure, shortened: as §1

KRAS G13D = KRAS G13D (Homo sapiens (Human), UniProt P01116+P62937, G13D); assay: as above; assay type: biochemical; conditions: read-out: KRAS G13D FRET data IC50
Procedure, shortened: as §1

KRAS G12C = KRAS G12C (Homo sapiens (Human), UniProt P01116+P62937, G12C); assay: as above; assay type: biochemical; conditions: read-out: KRAS G12C FRET IC50
Procedure, shortened: as §1

KRAS G12D = KRAS G12D (Homo sapiens (Human), UniProt P01116+P62937, G12D); assay: as above; assay type: biochemical; conditions: read-out: KRAS G12D FRET IC50
Procedure, shortened: as §1

[1] = tested on: K-Ras G12C (NCI-H358 cells); assay: Potency assay: pERK in NCI-H358 cells; assay type: cell-based, human; conditions: Homo sapiens; NCI-H358 cells, 4 hours; read-out: pERK EC50 (H358 KRAS G12C)
Procedure, shortened: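 Cells plated the day before were exposed for 4 h at 37° C, 5% CO2 to a 10-point, 3-fold DMSO dilution series (10 mM top stock), in duplicate. Phospho-ERK was read by AlphaLISA SureFire Ultra or by In-Cell Western with DRAQ5 DNA stain, and IC50 came from a 4-parameter sigmoidal fit.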

[2] = tested on: Capan-1 cells (K-Ras G12V); assay: CellTiter-Glo cell viability, Capan-1; assay type: cell-based, human; conditions: Homo sapiens, CAPAN-1, 120 h, read-out: Capan-1 Cell Viability IC50
Procedure, shortened: (§2)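 Viability read by luminescence on day 5 after direct compound addition to cells, following ~30 min room-temperature equilibration. Values expressed as percent of mean DMSO signal, curves fitted with a four-parameter logistic model.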

[3] = tested on: NCI-H358 cells (K-Ras G12C); assay: CellTiter-Glo cell viability, NCI-H358; assay type: cell-based, human; conditions: Homo sapiens, NCI-H358, 120 h, read-out: H358 Cell Viability IC50
Procedure, shortened: as §2

[4] = read-out: NRAS G12C FRET data IC50

NRAS G12C, sequence (P01111 whole entry G12C): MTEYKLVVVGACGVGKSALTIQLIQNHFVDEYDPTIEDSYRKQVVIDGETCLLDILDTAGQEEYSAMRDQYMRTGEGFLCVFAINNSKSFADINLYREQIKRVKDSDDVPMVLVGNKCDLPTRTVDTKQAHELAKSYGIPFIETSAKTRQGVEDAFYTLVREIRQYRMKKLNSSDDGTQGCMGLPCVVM
NRAS G12C, sequence (P62937 whole entry): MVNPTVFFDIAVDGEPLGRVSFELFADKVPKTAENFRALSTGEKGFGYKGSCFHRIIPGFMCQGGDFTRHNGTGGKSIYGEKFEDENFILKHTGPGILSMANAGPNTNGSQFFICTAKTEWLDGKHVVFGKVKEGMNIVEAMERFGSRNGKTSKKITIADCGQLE
KRAS G12V, sequence (P01116 other isoform, or with tags, fused parts or gaps G12V): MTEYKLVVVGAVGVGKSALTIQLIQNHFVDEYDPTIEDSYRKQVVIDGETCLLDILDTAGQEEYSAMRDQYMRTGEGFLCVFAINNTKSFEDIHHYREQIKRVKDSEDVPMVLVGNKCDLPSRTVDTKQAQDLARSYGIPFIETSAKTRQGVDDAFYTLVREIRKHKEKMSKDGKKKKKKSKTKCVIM
KRAS G12V, sequence (P62937 whole entry): as the sequence (P62937 whole entry) above
KRAS G12S, sequence (P01116 other isoform, or with tags, fused parts or gaps G12S): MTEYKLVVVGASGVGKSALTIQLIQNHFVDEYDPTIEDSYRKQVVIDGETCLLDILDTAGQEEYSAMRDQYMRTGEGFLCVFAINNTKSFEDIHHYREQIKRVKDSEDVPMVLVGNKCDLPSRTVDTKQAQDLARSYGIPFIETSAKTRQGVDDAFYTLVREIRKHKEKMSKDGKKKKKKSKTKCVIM
KRAS G12S, sequence (P62937 whole entry): as the sequence (P62937 whole entry) above
KRAS G12C, sequence (P01116-2 other isoform, or with tags, fused parts or gaps G12C): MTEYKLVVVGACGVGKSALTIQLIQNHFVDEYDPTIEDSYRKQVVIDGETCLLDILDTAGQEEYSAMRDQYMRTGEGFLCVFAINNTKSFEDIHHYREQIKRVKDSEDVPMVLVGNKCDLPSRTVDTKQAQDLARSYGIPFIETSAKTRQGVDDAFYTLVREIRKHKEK
KRAS G12C, sequence (P62937 whole entry): as the sequence (P62937 whole entry) above
KRAS G13D, sequence (P01116 other isoform, or with tags, fused parts or gaps G13D): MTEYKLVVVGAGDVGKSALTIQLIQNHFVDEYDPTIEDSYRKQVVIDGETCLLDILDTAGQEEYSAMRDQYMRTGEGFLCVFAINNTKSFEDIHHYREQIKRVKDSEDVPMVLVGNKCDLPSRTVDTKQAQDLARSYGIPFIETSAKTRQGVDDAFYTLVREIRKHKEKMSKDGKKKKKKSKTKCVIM
KRAS G13D, sequence (P62937 whole entry): as the sequence (P62937 whole entry) above
KRAS G13C, sequence (P01116 other isoform, or with tags, fused parts or gaps G13C): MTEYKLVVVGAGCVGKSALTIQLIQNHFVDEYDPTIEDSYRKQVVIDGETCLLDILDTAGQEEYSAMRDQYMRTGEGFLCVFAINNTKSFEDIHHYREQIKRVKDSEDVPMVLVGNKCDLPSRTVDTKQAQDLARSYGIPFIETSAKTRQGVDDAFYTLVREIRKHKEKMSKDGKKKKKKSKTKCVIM
KRAS G13C, sequence (P62937 whole entry): as the sequence (P62937 whole entry) above
KRAS G12D, sequence (P01116 other isoform, or with tags, fused parts or gaps G12D): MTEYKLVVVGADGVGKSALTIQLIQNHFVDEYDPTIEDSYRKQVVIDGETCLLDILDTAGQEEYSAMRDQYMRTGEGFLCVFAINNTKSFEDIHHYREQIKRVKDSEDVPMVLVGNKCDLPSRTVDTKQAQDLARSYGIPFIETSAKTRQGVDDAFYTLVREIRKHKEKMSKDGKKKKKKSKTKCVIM
KRAS G12D, sequence (P62937 whole entry): as the sequence (P62937 whole entry) above
KRAS WT, sequence (P01116 other isoform, or with tags, fused parts or gaps): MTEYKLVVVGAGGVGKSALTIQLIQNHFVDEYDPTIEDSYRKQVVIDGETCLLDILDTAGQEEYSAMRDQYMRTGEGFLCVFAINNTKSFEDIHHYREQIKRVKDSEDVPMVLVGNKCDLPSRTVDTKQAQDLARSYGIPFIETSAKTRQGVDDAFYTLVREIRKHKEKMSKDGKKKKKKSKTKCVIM
KRAS WT, sequence (P62937 whole entry): as the sequence (P62937 whole entry) above

Structure (SMILES) | IC50 (KRAS WT) [nM] | IC50 (KRAS G12V) [nM] | IC50 (NRAS G12C; [4]) [nM] | IC50 (KRAS G12S) [nM] | IC50 (KRAS G13C) [nM] | IC50 (KRAS G13D) [nM] | IC50 (KRAS G12C) [nM] | IC50 (KRAS G12D) [nM] | EC50 [1] [µM] | IC50 ([3]; K-Ras G12C, 5-day treatment) [nM] | IC50 ([2]; K-Ras G12V, 5-day treatment) [nM] | IC50 (NRAS G12C; NRAS G12C FRET data IC50) [nM] | IC50 [2] [nM] | IC50 [3] [nM]
CCn1c(-c2cccnc2[C@H](C)OC)c2c3cc(ccc31)-c1csc(n1)C[C@H](NC(=O)[C@H](C(C)C)N(C)C(=O)N1CC(OC(F)(F)F)C1)C(=O)N1CCC[C@H](N1)C(=O)OCC(C)(C)C2 [Compound A330] | 100 to 1000 | 100 to 1000 | 10 to 100 | 100 to 1000 | 100 to 1000 | 100 to 1000 | 10 to 100 | 1000 to 10000 | < 5 | 10 to 100 | 10 to 100 |  |  | 
CCn1c(-c2cccnc2[C@H](C)OC)c2c3cc(ccc31)-c1cc(O)cc(c1)C[C@H](NC(=O)[C@H](C(C)C)N(C)C(=O)[C@@H]1CCN(C(=O)[C@]3(C)CCCN3C)C1)C(=O)N1CCC[C@H](N1)C(=O)OCC(C)(C)C2 [Compound A342] | 10 to 100 | 10 to 100 | 10 to 100 | 10 to 100 | 10 to 100 | 10 to 100 | 10 to 100 | 10 to 100 | < 5 | 10 to 100 | 100 to 1000 |  |  | 
CCn1c(-c2cccnc2[C@H](C)OC)c2c3cc(ccc31)-c1csc(n1)C[C@H](NC(=O)[C@H](C(C)C)N(C)C(=O)N1CC(N)C1)C(=O)N1CCC[C@H](N1)C(=O)OCC(C)(C)C2 [Compound A343] | 100 to 1000 | 100 to 1000 | 10 to 100 | 100 to 1000 | 100 to 1000 | 100 to 1000 | 10 to 100 | 100 to 1000 | < 5 | 100 to 1000 | 100 to 1000 |  |  | 
CCn1c(-c2cccnc2[C@H](C)OC)c2c3cc(ccc31)-c1cc(O)cc(c1)C[C@H](NC(=O)[C@H](C(C)C)N(C)C(=O)[C@H]1CCN(C(=O)OC3CN(C)C3)C1)C(=O)N1CCC[C@H](N1)C(=O)OCC(C)(C)C2 [Compound A348] | 10 to 100 | 10 to 100 | 10 to 100 | 10 to 100 | 10 to 100 | 10 to 100 | 10 to 100 | 10 to 100 | < 5 | 10 to 100 | 100 to 1000 |  |  | 
CCn1c(-c2cccnc2[C@H](C)OC)c2c3cc(ccc31)-c1cc(O)cc(c1)C[C@H](NC(=O)[C@H](C(C)C)N(C)C(=O)C1CCC(C(F)(F)F)O1)C(=O)N1CCC[C@H](N1)C(=O)OCC(C)(C)C2 (some centres unmarked) [Compound A408] | 100 to 1000 | 100 to 1000 |  | 10 to 100 | 10 to 100 | 100 to 1000 | 10 to 100 | 100 to 1000 |  |  |  | 10 to 100 | 1000 to 10000 | 100 to 1000
CCn1c(-c2cccnc2[C@H](C)OC)c2c3cc(ccc31)-c1cc(O)cc(c1)C[C@H](NC(=O)[C@H](C(C)C)N(C)C(=O)C13CCC(CO1)C3)C(=O)N1CCC[C@H](N1)C(=O)OCC(C)(C)C2 [Compound A410] | 10 to 100 | 100 to 1000 | 100 to 1000 | 100 to 1000 | 10 to 100 | 100 to 1000 | 10 to 100 | 100 to 1000 |  | 100 to 1000 | 100 to 1000 |  |  | 

The next lines start with results.

IC50 (KRAS WT) [nM] | IC50 (KRAS G12V) [nM] | IC50 (NRAS G12C; [4]) [nM] | IC50 (KRAS G12S) [nM] | IC50 (KRAS G13C) [nM] | IC50 (KRAS G13D) [nM] | IC50 (KRAS G12C) [nM] | IC50 (KRAS G12D) [nM] | EC50 [1] [µM] | IC50 ([3]; K-Ras G12C, 5-day treatment) [nM] | Structure (SMILES) | IC50 ([2]; K-Ras G12V, 5-day treatment) [nM] | IC50 (NRAS G12C; NRAS G12C FRET data IC50) [nM] | IC50 [2] [nM] | IC50 [3] [nM]
100 to 1000 | 100 to 1000 | 100 to 1000 | 1000 to 10000 | 100 to 1000 | 1000 to 10000 | 100 to 1000 | 1000 to 10000 | < 5 | 100 to 1000 | CCn1c(-c2cccnc2[C@H](C)OC)c2c3cc(ccc31)-c1csc(n1)C[C@H](NC(=O)[C@H](C(C)C)N(C)S(=O)(=O)N1CC(OC)C1)C(=O)N1CCC[C@H](N1)C(=O)OCC(C)(C)C2 [Compound A322] | 100 to 1000 |  |  | 
10 to 100 | 100 to 1000 | 10 to 100 | 100 to 1000 | 100 to 1000 | 100 to 1000 | 10 to 100 | 100 to 1000 | < 5 | 10 to 100 | CCN(C)C(=O)N(C)[C@H](C(=O)N[C@H]1Cc2nc(cs2)-c2ccc3c(c2)c(c(-c2cccnc2[C@H](C)OC)n3CC)CC(C)(C)COC(=O)[C@@H]2CCCN(N2)C1=O)C(C)C [Compound A336] | 10 to 100 |  |  | 
